Assay results from PMC6641291 (ACS Omega, 2018).

Target: T1, δ^1-pyrroline-5-carboxylate reductase (P5C reductase) (Arabidopsis thaliana, UniProt P54904)
T1 sequence (P54904 1-276): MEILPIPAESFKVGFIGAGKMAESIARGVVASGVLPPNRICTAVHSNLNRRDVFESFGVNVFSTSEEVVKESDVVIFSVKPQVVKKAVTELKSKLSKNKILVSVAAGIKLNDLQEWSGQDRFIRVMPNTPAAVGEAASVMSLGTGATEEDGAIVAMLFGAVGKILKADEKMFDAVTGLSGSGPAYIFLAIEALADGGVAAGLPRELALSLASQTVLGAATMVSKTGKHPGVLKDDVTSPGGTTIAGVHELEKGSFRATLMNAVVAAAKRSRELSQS
Assay: P5C-dependent NADH oxidation, absorbance at […] nm
Type: biochemical

SMILES | IC50
O=C(O)[C@@H]1CCCN1 [proline] | 84 ± 3 mM
O=P(O)(O)[C@@H]1CCCN1 [(R)-1, Pyrrolidin-2-ylphosphonic Acid] | 24 ± 4 mM
O=P(O)(O)[C@H]1CCCN1 [(S)-1, Pyrrolidin-2-ylphosphonic Acid] | 21 ± 2 mM
O=P(O)(O)[C@@H]1CCCON1 [(R)-6, (R)-(−)-1,2-oxazinan-3-ylphosphonic acid] | 45 ± 19 mM
